Tests used:
human TLR7 (hTLR7) = target: T1, human TLR7 (hTLR7) (Homo sapiens, UniProt Q9NYK1); experiment: Human TLR7 agonist activity assay (HEK-Blue TLR7 SEAP reporter); assay type: cell-based; settings: HEK-Blue TLR7 cells, 18 h incubation, Quanti-Blue, OD 620 nm, some values average of multiple measurements
T1 construct: host or cells: HEK-Blue TLR7 cells (engineered human embryonic kidney cells)
T1 sequence (Q9NYK1 27-1049): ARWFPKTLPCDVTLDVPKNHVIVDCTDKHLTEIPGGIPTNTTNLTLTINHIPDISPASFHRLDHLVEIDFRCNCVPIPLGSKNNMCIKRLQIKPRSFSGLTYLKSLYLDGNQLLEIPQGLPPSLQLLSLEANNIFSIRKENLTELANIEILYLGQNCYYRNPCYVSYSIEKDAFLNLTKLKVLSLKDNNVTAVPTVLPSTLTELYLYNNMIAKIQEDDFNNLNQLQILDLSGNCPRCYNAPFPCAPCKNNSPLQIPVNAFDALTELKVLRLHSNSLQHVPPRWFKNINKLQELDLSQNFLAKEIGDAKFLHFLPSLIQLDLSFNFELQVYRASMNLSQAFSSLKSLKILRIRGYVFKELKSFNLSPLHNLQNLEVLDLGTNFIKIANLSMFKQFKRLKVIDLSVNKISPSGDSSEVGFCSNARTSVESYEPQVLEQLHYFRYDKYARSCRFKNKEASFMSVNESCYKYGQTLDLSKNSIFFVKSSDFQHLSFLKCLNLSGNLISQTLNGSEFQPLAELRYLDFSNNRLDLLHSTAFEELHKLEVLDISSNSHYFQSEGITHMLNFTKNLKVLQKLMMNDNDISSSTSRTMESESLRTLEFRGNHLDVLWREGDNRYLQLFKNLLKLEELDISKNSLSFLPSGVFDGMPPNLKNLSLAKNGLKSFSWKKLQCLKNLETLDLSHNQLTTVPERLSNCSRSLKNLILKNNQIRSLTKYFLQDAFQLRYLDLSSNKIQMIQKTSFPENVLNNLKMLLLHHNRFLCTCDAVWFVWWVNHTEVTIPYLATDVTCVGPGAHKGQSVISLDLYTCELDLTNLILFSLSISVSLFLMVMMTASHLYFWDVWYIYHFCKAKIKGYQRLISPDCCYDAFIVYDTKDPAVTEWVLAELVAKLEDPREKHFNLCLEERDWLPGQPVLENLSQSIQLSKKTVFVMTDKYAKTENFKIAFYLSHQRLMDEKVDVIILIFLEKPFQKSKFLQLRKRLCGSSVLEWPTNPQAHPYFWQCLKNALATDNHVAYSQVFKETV
In short: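 HEK-Blue TLR7 cells seeded 16-18 h, then exposed to compound for 18 h at 37 °C, 5% CO2. Secreted SEAP read with Quanti-Blue at OD 620 nm after 30 min. EC50 taken as concentration giving half-maximal response between baseline and maximum; some values averaged over repeats.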

human TLR8 (hTLR8) = target: T2, human TLR8 (hTLR8) (Homo sapiens, UniProt Q9NR97); experiment: Human TLR8 agonist activity assay (measured in a similar manner); assay type: cell-based; settings: HEK-Blue TLR cells, SEAP reporter, measured in a similar manner to TLR7; some values average of multiple measurements
T2 construct: expressed in transfected cells
T2 sequence (Q9NR97 27-1041): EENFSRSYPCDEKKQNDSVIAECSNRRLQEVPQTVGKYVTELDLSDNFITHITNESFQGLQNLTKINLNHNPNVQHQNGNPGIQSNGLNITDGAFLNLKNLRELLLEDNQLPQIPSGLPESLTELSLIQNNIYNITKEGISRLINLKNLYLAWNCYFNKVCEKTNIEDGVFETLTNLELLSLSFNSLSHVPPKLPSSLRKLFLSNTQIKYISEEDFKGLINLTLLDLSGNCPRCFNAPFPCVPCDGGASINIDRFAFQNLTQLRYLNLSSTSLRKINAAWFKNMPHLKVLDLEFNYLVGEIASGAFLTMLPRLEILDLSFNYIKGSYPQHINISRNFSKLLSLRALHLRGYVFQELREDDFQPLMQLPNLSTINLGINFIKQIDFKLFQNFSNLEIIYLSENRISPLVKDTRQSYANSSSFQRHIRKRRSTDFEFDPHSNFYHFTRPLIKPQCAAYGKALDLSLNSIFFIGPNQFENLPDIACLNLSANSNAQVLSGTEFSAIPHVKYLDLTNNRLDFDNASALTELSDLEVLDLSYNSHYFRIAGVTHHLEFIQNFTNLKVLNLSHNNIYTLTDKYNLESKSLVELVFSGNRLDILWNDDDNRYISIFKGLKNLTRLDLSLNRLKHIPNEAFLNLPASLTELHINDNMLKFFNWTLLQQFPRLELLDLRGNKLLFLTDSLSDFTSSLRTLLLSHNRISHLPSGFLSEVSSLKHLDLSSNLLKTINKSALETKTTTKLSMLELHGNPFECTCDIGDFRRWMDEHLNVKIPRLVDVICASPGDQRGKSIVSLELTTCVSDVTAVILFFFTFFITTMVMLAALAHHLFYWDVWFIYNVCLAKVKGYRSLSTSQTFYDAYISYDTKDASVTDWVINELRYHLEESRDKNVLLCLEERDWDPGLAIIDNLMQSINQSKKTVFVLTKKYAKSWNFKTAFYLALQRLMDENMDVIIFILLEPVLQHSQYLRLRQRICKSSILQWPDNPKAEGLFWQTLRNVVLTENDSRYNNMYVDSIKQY
In short: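 Compounds were added to HEK-Blue TLR8 reporter cells, pre-incubated 16-18 h, then treated 18 h at 37° C, 5% CO2. SEAP output was measured with Quanti-Blue (30 min) at OD 620 nm. Some values are averages of multiple measurements.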

| Structure (SMILES) | EC50 (human TLR7 (hTLR7)) | EC50 (human TLR8 (hTLR8)) |
| --- | --- | --- |
| CCCCN(CCO)c1nc(N)nc2cn(Cc3ccc(CN[C@@H]4CCOC4)cc3OC)nc12 [Compound 53] | 0.731 µM | 0.486 µM |
| CCCCN(CCO)c1nc(N)nc2cn(Cc3c(F)cc(C4CCN(CCOC)CC4)cc3C#N)nc12 [Compound 149] | 0.561 µM | 1.81 µM |
| CCCCN(CCO)c1nc(N)nc2cn(Cc3c(F)cc(C4CCC(N(C)CCOC)CC4)cc3OC)nc12 (stereo not shown) [Compound 199] | 0.274 µM | 1.62 µM |
| CCCCN(CCO)c1nc(N)nc2cn(Cc3ccc(CNCC)cc3OC)nc12 [Compound 17] | 1.15 µM | 0.745 µM |
| CCCCN(c1nc(N)nc2cn(Cc3ccc(CN[C@@H]4CCOC4)cc3OC)nc12)C(C)CO (stereo partly shown) [Compound 68] | 0.349 µM | 1.32 µM |
| CCCCN(CCO)c1nc(N)nc2cn(Cc3c(OC)cc(CN[C@@H]4CCOC4)cc3OC)nc12 [Compound 145] | 1.44 µM | 2.02 µM |
| CCCCN(CCO)c1nc(N)nc2cn(Cc3c(F)cc(C4CCN(CC(C)(C)O)CC4)cc3OC)nc12 [Compound 36] | 0.144 µM | 0.525 µM |
| CCCCCN(CCO)c1nc(N)nc2cn(Cc3ccc(CNC4CCC4)cc3OC)nc12 [Compound 44] | 0.825 µM | 0.705 µM |
| CCCCN(CCO)c1nc(N)nc2cn(Cc3ccc(CN4CCCNCC4)cc3OC)nc12 [Compound 55] | 0.349 µM | 2.03 µM |
| CCCCN(CCO)c1nc(N)nc2cn(Cc3ccc(CN[C@@H]4CCOC4)c4oc(C)nc34)nc12 [Compound 142] | 1.63 µM | 0.915 µM |
| CCCCN(CCO)c1nc(N)nc2cn(Cc3c(F)cc(C4CCN(CCS(C)(=O)=O)CC4)cc3OC)nc12 [Compound 42] | 0.101 µM | 0.496 µM |
| CCCCN(CCO)c1nc(N)nc2cn(Cc3ccc(CNC4CCC4)c4oc(C)nc34)nc12 [Compound 140, 2-((5-Amino-2-((7-((cyclobutylamino)methyl)-2-methylbenzo[d]oxazol-4-yl)methyl)-2H-pyrazolo-[4,3-d]pyrimidin-7-yl) (butyl)amino) ethan-1-ol] | 0.993 µM | 0.674 µM |
| CCCCN(CCO)c1nc(N)nc2cn(Cc3c(F)cc(CNCC(C)(C)C)cc3OC)nc12 [Compound 80] | 1.41 µM | 1.62 µM |
| CCCCN(CCO)c1nc(N)nc2cn(Cc3c(F)cc(CN[C@@H]4CCOC4)cc3OC)nc12 [Compound 75] | 0.37 µM | 0.67 µM |
| CCCCN(CCO)c1nc(N)nc2cn(Cc3c(F)cc(CNC4CCOCC4)cc3F)nc12 [Compound 115] | 0.108 µM | 1.5 µM |
| CCCCN(CCO)c1nc(N)nc2cn(Cc3ccc(CNCCCCO)c4cccnc34)nc12 [Compound 59] | 1.55 µM | 1.14 µM |
| CCCCN(CCO)c1nc(N)nc2cn(Cc3ccc(CN4CCOCC4)cc3OC)nc12 [Compound 18] | 0.38 µM | 0.447 µM |
| CCCCN(CCO)c1nc(N)nc2cn(Cc3ccc(CNC(C)(C)C)cc3OC)nc12 [Compound 7] | 0.969 µM | 0.602 µM |
| CCCCN(CCO)c1nc(N)nc2cn(Cc3c(F)cc(C4CCN(CC(N)=O)CC4)cc3OC)nc12 [Compound 41] | 0.251 µM | 0.858 µM |

Further compounds by falling EC50 (human TLR7 (hTLR7)), results first:

| EC50 (human TLR7 (hTLR7)) | EC50 (human TLR8 (hTLR8)) | Structure (SMILES) |
| --- | --- | --- |
| 2.5 µM | 1.2 µM | CCCCN(CCO)c1nc(N)nc2cn(Cc3ccc(CNC(C)(C)CO)cc3OC)nc12 [Compound 32] |
| 2.11 µM | 1.55 µM | CCCCN(CCO)c1nc(N)nc2cn(Cc3ccc(CNC4CC(F)(F)C4)c4cccnc34)nc12 [Compound 64] |
| 2 µM | 1.39 µM | CCCCCNCc1ccc(Cn2cc3nc(N)nc(N(CCO)CCCC)c3n2)c2ncccc12 [Compound 57] |
| 1.9 µM | 1.19 µM | CCCCN(CCO)c1nc(N)nc2cn(Cc3ccc(CNC4CCOCC4)c4nccnc34)nc12 [Compound 206] |
| 1.87 µM | 2.06 µM | CCCCN(CCO)c1nc(N)nc2cn(Cc3c(OC)cc(CNC4CCOCC4)cc3OC)nc12 [Compound 144] |
| 1.82 µM | 1.77 µM | CCCCN(CCO)c1nc(N)nc2cn(Cc3c(OC)cc(CNC(C)C)cc3OC)nc12 [Compound 146] |
| 1.75 µM | 2.16 µM | CCCCN(CCO)c1nc(N)nc2cn(Cc3ccc(CNC4CCCOC4)cc3OC)nc12 (stereo not shown) [Compound 104] |
| 1.33 µM | 1.45 µM | CCCCN(CCO)c1nc(N)nc2cn(Cc3ccc(CNCCOC)cc3OC)nc12 [Compound 10] |
| 1.31 µM | 2.27 µM | CCCCN(CCO)c1nc(N)nc2cn(Cc3ccc(CN[C@@H]4CCCN(C(=O)CN)C4)c4cccnc34)nc12 [Compound 198] |
| 1.28 µM | 3.33 µM | CCCCN(CCO)c1nc(N)nc2cn(Cc3ccc(CN[C@H]4CC[C@H](CO)CC4)cc3C(F)F)nc12 [Compound 131] |
| 1.14 µM | 0.491 µM | CCCCN(CCO)c1nc(N)nc2cn(Cc3ccc(CN[C@@H]4CCOC4)c4c3OCCC4)nc12 [Compound 135] |
| 1.09 µM | 0.628 µM | CCCCN(CCO)c1nc(N)nc2cn(Cc3ccc(CN[C@H]4CC[C@H](O)CC4)c4cccnc34)nc12 [Compound 169] |
| 0.621 µM | 1.88 µM | CCCCN(CCOC)c1nc(N)nc2cn(Cc3ccc(CN[C@@H]4CCOC4)cc3OC)nc12 [Compound 71] |
| 0.587 µM | 0.834 µM | CCCCN(CCO)c1nc(N)nc2cn(Cc3ccc(CNC4(C)COC4)cc3OC)nc12 [Compound 21] |
| 0.585 µM | 0.562 µM | CCCCN(CCO)c1nc(N)nc2cn(Cc3ccc(CNC4CCOC(C)(C)C4)cc3OC)nc12 (single isomer, unassigned) [Compound 112, 2-((5-Amino-2-(4-(((2,2-dimethyltetrahydro-2H-pyran-4-yl)amino)methyl)-2-methoxybenzyl)-2H-pyrazolo[4,3-d]pyrimidin-7-yl)(butyl)amino) ethan-1-ol] |
| 0.511 µM | 2.26 µM | CCCCN(CCO)c1nc(N)nc2cn(Cc3c(F)cc(CN4CC5(COC5)C4)cc3OC)nc12 [Compound 83] |
| 0.43 µM | 0.36 µM | CCCCN(CCO)c1nc(N)nc2cn(Cc3ccc(CNC4CCOC4)cc3OC)nc12 (stereo not shown) [Compound 25] |
| 0.392 µM | 0.801 µM | CCCCN(CCO)c1nc(N)nc2cn(Cc3c(F)cc(C4CCN(C(C)C)CC4)cc3OC)nc12 [Compound 40] |
| 0.186 µM | 0.538 µM | CCCCN(CCO)c1nc(N)nc2cn(Cc3c(F)cc(C4CCN(C)CC4)cc3OC)nc12 [Compound 47] |
